According to ChEMBL document CHEMBL2439953, “Dimeric argininamide-type neuropeptide Y receptor antagonists: chiral discrimination between Y1 and Y4 receptors” (Bioorg Med Chem, 2013):

Key:
[1] = target: T1, Neuropeptide Y receptor type 1 (Homo sapiens, UniProt P25929); assay: Displacement of [3H]UR-MK114 from human neuropeptide Y receptor type 1 expressed in human SK-N-MC cells; assay type: cell-based
T1 sequence (P25929 whole entry): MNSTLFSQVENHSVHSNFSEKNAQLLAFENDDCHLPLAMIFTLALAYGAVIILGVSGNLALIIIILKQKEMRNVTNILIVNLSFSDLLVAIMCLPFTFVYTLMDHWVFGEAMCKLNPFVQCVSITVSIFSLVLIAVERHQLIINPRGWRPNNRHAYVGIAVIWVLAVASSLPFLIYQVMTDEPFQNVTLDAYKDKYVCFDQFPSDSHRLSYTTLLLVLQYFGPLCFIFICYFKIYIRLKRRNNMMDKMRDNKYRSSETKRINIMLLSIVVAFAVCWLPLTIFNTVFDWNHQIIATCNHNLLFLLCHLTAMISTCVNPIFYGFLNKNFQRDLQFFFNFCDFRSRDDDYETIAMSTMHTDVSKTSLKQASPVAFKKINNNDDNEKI

[2] = target: T2, Neuropeptide Y receptor type 4 (Homo sapiens, UniProt P50391); assay: Antagonist activity at human neuropeptide Y receptor type 4 expressed in CHO cells co-expressing Gqi5-mtAEQ assessed as inhibition of hPP-induced calcium mobilization by Aequorin assay; assay type: functional, cell-based
T2 sequence (P50391 whole entry): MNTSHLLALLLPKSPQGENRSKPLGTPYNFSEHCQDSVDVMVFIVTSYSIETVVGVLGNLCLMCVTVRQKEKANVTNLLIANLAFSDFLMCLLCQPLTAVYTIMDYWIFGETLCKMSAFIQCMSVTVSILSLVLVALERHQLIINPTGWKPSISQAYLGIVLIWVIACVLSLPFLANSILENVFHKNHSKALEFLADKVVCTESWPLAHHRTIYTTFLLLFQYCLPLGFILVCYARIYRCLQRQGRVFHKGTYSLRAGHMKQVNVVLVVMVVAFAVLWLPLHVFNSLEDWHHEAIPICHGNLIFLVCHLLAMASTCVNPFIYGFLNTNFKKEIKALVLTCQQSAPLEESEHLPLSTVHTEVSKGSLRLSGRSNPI

[3] = target: T2, Neuropeptide Y receptor type 4; assay: Binding affinity to human neuropeptide Y receptor type 4 receptor expressed in CHO cells using Cy5-[K4]-hPP by flow cytometric analysis; assay type: cell-based
[4] = target: T3, Neuropeptide Y receptor type 5 (Homo sapiens, UniProt Q15761); assay: Binding affinity to human neuropeptide Y receptor type 5 receptor expressed in HEC-1B cells using Cy5-pNPY by flow cytometric analysis; assay type: cell-based
T3 sequence (Q15761 whole entry): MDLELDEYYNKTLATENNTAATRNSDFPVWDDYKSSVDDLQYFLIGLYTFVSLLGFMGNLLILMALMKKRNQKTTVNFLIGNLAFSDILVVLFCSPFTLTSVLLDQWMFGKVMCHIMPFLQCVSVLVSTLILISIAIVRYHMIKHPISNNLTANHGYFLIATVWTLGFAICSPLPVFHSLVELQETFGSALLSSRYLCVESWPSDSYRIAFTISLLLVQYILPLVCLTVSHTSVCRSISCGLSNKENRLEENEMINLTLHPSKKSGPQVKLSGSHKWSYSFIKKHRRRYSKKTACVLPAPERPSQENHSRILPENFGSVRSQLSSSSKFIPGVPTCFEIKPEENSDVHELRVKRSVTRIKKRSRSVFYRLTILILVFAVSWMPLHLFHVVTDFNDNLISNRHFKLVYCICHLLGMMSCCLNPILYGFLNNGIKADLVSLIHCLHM

[5] = target: T4, Neuropeptide Y receptor type 2 (Homo sapiens, UniProt P49146); assay: Binding affinity to human neuropeptide Y receptor type 2 receptor expressed in CHO cells using Cy5-pNPY by flow cytometric analysis; assay type: cell-based
T4 sequence (P49146 whole entry): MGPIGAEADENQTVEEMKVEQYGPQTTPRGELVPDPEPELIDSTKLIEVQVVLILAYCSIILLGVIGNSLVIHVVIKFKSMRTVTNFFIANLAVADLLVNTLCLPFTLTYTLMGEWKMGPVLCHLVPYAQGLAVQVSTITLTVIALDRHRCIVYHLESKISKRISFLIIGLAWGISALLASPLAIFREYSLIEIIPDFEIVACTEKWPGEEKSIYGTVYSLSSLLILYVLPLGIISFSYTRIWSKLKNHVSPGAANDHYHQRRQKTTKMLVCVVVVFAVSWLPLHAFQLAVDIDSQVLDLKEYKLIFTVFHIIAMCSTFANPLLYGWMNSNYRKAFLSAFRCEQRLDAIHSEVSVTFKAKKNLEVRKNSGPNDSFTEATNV

Row | SMILES | Ki [1] | Kb [2] | Ki [3] | Ki [4] | Ki [5]
1 | N=C(N)NCCC[C@@H](NC(=O)C(c1ccccc1)c1ccccc1)C(=O)NCc1ccc(CNC(=O)NCCCCN)cc1 | 0.041 µM | > 5 µM | > 5 µM | – | –
2 | NCCOCCOCCNC(=O)/N=C(/N)NCCC[C@@H](NC(=O)C(c1ccccc1)c1ccccc1)C(=O)NCc1ccc(O)cc1 | 0.0073 µM | – | > 5 µM | > 5 µM | > 5 µM
3 | NCCN(CCNC(=O)CCCCC(=O)NCCCCNC(=O)/N=C(/N)NCCC[C@@H](NC(=O)C(c1ccccc1)c1ccccc1)C(=O)NCc1ccc(O)cc1)CCNC(=O)CCCCC(=O)NCCCCNC(=O)/N=C(/N)NCCC[C@@H](NC(=O)C(c1ccccc1)c1ccccc1)C(=O)NCc1ccc(O)cc1 | 0.042 µM | 0.032 µM | 0.55 µM | > 5 µM | 1 µM
4 | NCCCCNC(=O)/N=C(/N)NCCC[C@@H](NC(=O)C(c1ccccc1)c1ccccc1)C(=O)NCc1ccc(O)cc1 | – | – | > 5 µM | – | –
5 | N=C(N)NCCC[C@@H](NC(=O)C(c1ccccc1)c1ccccc1)C(=O)NCc1ccc(CNC(=O)NCCCCNC(=O)CNC(=O)CCC(=O)NCCN(CCN)CCNC(=O)CCC(=O)NCC(=O)NCCCCNC(=O)NCc2ccc(CNC(=O)[C@@H](CCCNC(=N)N)NC(=O)C(c3ccccc3)c3ccccc3)cc2)cc1 | 0.2 µM | 0.9 µM | 2.2 µM | > 5 µM | 2.3 µM
6 | N=C(N)NCCC[C@@H](NC(=O)C(c1ccccc1)c1ccccc1)C(=O)NCc1ccc(CNC(=O)NCCCCNC(=O)NCCN)cc1 | 0.89 µM | – | – | – | –
7 | NCCNC(=O)CCC(=O)NCCNC(=O)/N=C(\N)NCCC[C@H](NC(=O)C(c1ccccc1)c1ccccc1)C(=O)NCc1ccc(CNC(N)=O)cc1 | > 5 µM | > 5 µM | 4.1 µM | – | > 5 µM
8 | NCCN(CCNC(=O)c1ccc(C(=O)NCCOCCOCCNC(=O)/N=C(/N)NCCC[C@H](NC(=O)C(c2ccccc2)c2ccccc2)C(=O)NCc2ccc(O)cc2)cc1)CCNC(=O)c1ccc(C(=O)NCCOCCOCCNC(=O)/N=C(/N)NCCC[C@H](NC(=O)C(c2ccccc2)c2ccccc2)C(=O)NCc2ccc(O)cc2)cc1 | > 5 µM | 0.027 µM | 0.26 µM | > 5 µM | 1.4 µM
9 | NCCN(CCNC(=O)CCC(=O)NCCCCCCNC(=O)/N=C(/N)NCCC[C@@H](NC(=O)C(c1ccccc1)c1ccccc1)C(=O)NCc1ccc(O)cc1)CCNC(=O)CCC(=O)NCCCCCCNC(=O)/N=C(/N)NCCC[C@@H](NC(=O)C(c1ccccc1)c1ccccc1)C(=O)NCc1ccc(O)cc1 | 0.04 µM | 0.033 µM | 0.27 µM | > 5 µM | 1.3 µM
10 | NCCOCCOCCNC(=O)CCC(=O)NCCNC(=O)/N=C(\N)NCCC[C@@H](NC(=O)C(c1ccccc1)c1ccccc1)C(=O)NCc1ccc(CNC(N)=O)cc1 | 0.077 µM | – | > 5 µM | – | –
11 | NC(N)=NCCC[C@H](NC(=O)C(c1ccccc1)c1ccccc1)C(=O)NCc1ccc(O)cc1 | – | – | > 5 µM | – | –
12 | NCCC(=O)NCCNC(=O)CCC(=O)NCCNC(=O)/N=C(\N)NCCC[C@H](NC(=O)C(c1ccccc1)c1ccccc1)C(=O)NCc1ccc(CNC(N)=O)cc1 | > 5 µM | > 5 µM | 3.3 µM | > 5 µM | > 5 µM
13 | N=C(N)NCCOCCOCCNC(=O)/N=C(/N)NCCC[C@@H](NC(=O)C(c1ccccc1)c1ccccc1)C(=O)NCc1ccc(O)cc1 | 0.13 µM | – | 3.8 µM | > 5 µM | –
14 | NC(=NCCC[C@@H](NC(=O)C(c1ccccc1)c1ccccc1)C(=O)NCc1ccc(O)cc1)NC(=O)CCCCCCC(=O)NC(N)=NCCC[C@@H](NC(=O)C(c1ccccc1)c1ccccc1)C(=O)NCc1ccc(O)cc1 | 0.063 µM | – | 2 µM | – | –
15 | NCCC(=O)NCCNC(=O)CCC(=O)NCCNC(=O)/N=C(\N)NCCC[C@@H](NC(=O)C(c1ccccc1)c1ccccc1)C(=O)NCc1ccc(CNC(N)=O)cc1 | 0.086 µM | – | > 5 µM | – | –
16 | NCCOCCOCCNC(=O)CCC(=O)NCCNC(=O)/N=C(\N)NCCC[C@H](NC(=O)C(c1ccccc1)c1ccccc1)C(=O)NCc1ccc(CNC(N)=O)cc1 | > 5 µM | > 5 µM | 3.2 µM | > 5 µM | > 5 µM
17 | NCCOCCOCCNC(=O)/N=C(/N)NCCC[C@@H](NC(=O)C(c1ccccc1)c1ccccc1)C(=O)NCc1ccc(CNC(N)=O)cc1 | 0.031 µM | – | – | – | –

Row | SMILES | Ki [1] | Kb [2] | Ki [3] | Ki [4] | Ki [5]
18 | NCCCOCCOCCOCCNC(=O)CCC(=O)NCCNC(=O)/N=C(\N)NCCC[C@@H](NC(=O)C(c1ccccc1)c1ccccc1)C(=O)NCc1ccc(CNC(N)=O)cc1 | 0.071 µM | – | > 5 µM | – | –
19 | NCCC(=O)NCCNC(=O)CCC(=O)NCCNC(=O)CCC(=O)NCCNC(=O)/N=C(\N)NCCC[C@H](NC(=O)C(c1ccccc1)c1ccccc1)C(=O)NCc1ccc(CNC(N)=O)cc1 | > 5 µM | > 5 µM | 3.5 µM | > 5 µM | > 5 µM
20 | NCCC(=O)NCCNC(=O)CCC(=O)NCCNC(=O)CCC(=O)NCCNC(=O)/N=C(\N)NCCC[C@@H](NC(=O)C(c1ccccc1)c1ccccc1)C(=O)NCc1ccc(CNC(N)=O)cc1 | 1.2 µM | – | > 5 µM | – | –
21 | NCCNC(=O)CCC(=O)NCCNC(=O)CCC(=O)NCCNC(=O)/N=C(\N)NCCC[C@@H](NC(=O)C(c1ccccc1)c1ccccc1)C(=O)NCc1ccc(CNC(N)=O)cc1 | 1 µM | – | > 5 µM | – | –
22 | NCCCCCCNC(=O)/N=C(/N)NCCC[C@@H](NC(=O)C(c1ccccc1)c1ccccc1)C(=O)NCc1ccc(O)cc1 | 0.0099 µM | – | – | – | –
23 | NCCCCCCNC(=O)/N=C(/N)NCCC[C@@H](NC(=O)C(c1ccccc1)c1ccccc1)C(=O)NCc1ccc(CNC(N)=O)cc1 | 0.2 µM | > 5 µM | > 5 µM | – | –
24 | NCCCOCCOCCOCCNC(=O)CCC(=O)NCCNC(=O)/N=C(\N)NCCC[C@H](NC(=O)C(c1ccccc1)c1ccccc1)C(=O)NCc1ccc(CNC(N)=O)cc1 | > 5 µM | > 5 µM | 3.7 µM | > 5 µM | > 5 µM
25 | N=C(N)NCCCC(NC(=O)CC1(CC(=O)N2CCN(C3c4ccccc4NC(=O)c4ccccc43)CC2)CCCC1)C(=O)NCCn1c(=O)n(-c2ccccc2)n(-c2ccccc2)c1=O (single isomer, unassigned) | > 5 µM | – | > 7.5 µM | > 5 µM | –
26 | CCC(=O)NCC(=O)NCCCCNC(=O)NCc1ccc(CNC(=O)[C@@H](CCCNC(=N)N)NC(=O)C(c2ccccc2)c2ccccc2)cc1 | 0.073 µM | – | – | – | –
27 | N=C(N)NCCC[C@@H](NC(=O)C(c1ccccc1)c1ccccc1)C(=O)NCc1ccc(CNC(N)=O)cc1 | – | > 5 µM | > 5 µM | – | –
28 | NCCNC(=O)CCC(=O)NCCNC(=O)/N=C(\N)NCCC[C@@H](NC(=O)C(c1ccccc1)c1ccccc1)C(=O)NCc1ccc(CNC(N)=O)cc1 | 0.36 µM | – | > 5 µM | – | –
29 | NCCOCCOCCNC(=O)/N=C(/N)NCCC[C@H](NC(=O)C(c1ccccc1)c1ccccc1)C(=O)NCc1ccc(O)cc1 | > 5 µM | – | – | > 5 µM | > 5 µM
30 | N=C(N)NCCC[C@@H](NC(=O)C(c1ccccc1)c1ccccc1)C(=O)NCc1ccc(O)cc1 | – | – | > 5 µM | – | –
31 | NCCCCCCNC(=O)/N=C(/N)NCCC[C@H](NC(=O)CC1(CC(=O)N2CCN(C3c4ccccc4NC(=O)c4ccccc43)CC2)CCCC1)C(=O)NCCn1c(=O)n(-c2ccccc2)n(-c2ccccc2)c1=O (some centres undefined) | > 5 µM | – | – | – | 0.007 µM
32 | N=C(N)NCCC[C@@H](NC(=O)C(c1ccccc1)c1ccccc1)C(=O)NCc1ccc(CNC(=O)NCCCCNC(=O)CN)cc1 | 0.014 µM | – | – | – | –
33 | NCCN(CCNC(=O)c1ccc(C(=O)NCCCCNC(=O)/N=C(/N)NCCC[C@@H](NC(=O)C(c2ccccc2)c2ccccc2)C(=O)NCc2ccc(O)cc2)cc1)CCNC(=O)c1ccc(C(=O)NCCCCNC(=O)/N=C(/N)NCCC[C@@H](NC(=O)C(c2ccccc2)c2ccccc2)C(=O)NCc2ccc(O)cc2)cc1 | 0.053 µM | 0.034 µM | 0.21 µM | > 5 µM | 0.78 µM
34 | NCCNC(=O)CCC(=O)NCCNC(=O)CCC(=O)NCCNC(=O)/N=C(\N)NCCC[C@H](NC(=O)C(c1ccccc1)c1ccccc1)C(=O)NCc1ccc(CNC(N)=O)cc1 | > 5 µM | > 5 µM | > 5 µM | > 5 µM | > 5 µM
